According to patent US7553832B2, “Methods and compositions for specific inhibition of protein splicing by small molecules” (Boston Biomedical Research Institute, priority 2005, dated 2009):

These compounds were tested against T1, M. tuberculosis DnaB intein (Mycobacterium tuberculosis, UniProt P9WMR3) (assay: biochemical).
T1 sequence (P9WMR3 400-815 limits assumed): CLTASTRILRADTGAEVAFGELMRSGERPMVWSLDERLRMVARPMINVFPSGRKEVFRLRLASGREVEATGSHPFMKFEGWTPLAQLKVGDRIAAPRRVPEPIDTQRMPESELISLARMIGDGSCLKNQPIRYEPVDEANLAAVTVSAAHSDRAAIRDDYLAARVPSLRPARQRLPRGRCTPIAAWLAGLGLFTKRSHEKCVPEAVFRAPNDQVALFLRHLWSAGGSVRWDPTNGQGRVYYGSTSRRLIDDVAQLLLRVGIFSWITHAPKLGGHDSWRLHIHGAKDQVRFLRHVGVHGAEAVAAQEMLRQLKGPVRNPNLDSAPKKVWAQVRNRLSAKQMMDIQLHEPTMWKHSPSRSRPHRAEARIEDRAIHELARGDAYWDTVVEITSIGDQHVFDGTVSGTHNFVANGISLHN
Type: biochemical

SMILES | IC50
CCOC(=O)c1nnc(-c2ccccc2)nc1Sc1ccccc1C(=O)OC [Compound 41] | < 5 µM
COc1ccc(NC(=O)C(Cl)=C(Cl)[S+]([O-])Cc2ccccc2)cn1 (stereo not shown) [Compound 9] | 7 µM
O=C(Oc1ccc(Cl)cc1)c1snnc1-c1ccccc1 [Compound 23] | < 5 µM
CCOC(=O)CSc1nc2c(c(-c3cccs3)c1C#N)CN(C)CC2 [Compound 56] | 10 µM
COc1cccc(N(NC(=O)C(O)(c2cccc(C(F)(F)F)c2)c2cccc(C(F)(F)F)c2)C(=O)CCl)c1 [Compound 51] | < 5 µM
O=C(Nc1ccccc1)c1nnsc1S(=O)(=O)c1ccc(Cl)cc1 [Compound 10] | 7 µM
Cc1cc(Oc2c([N+](=O)[O-])cc(C(F)(F)F)cc2[N+](=O)[O-])ccc1Cl [Compound 64] | < 5 µM
CCOC(=O)c1cc(C#N)c(Sc2nnc(SCC3CC3)s2)nc1C(F)(F)F [Compound 71] | < 5 µM
[O-][S+](c1ccc(C(F)(F)F)cc1)c1cnn2c(Cl)nnc2c1 (stereo not shown) [Compound 45] | < 5 µM
Cn1cc(C(=O)c2cccc(Cl)c2Cl)cc1C(=O)C(Cl)(Cl)Cl [Compound 40] | < 5 µM
N#CC1(C#N)C(c2cccc(I)c2)C(C(N)=O)N2C=Cc3ccccc3C21 (stereo not shown) [Compound 17] | 15 µM
Oc1cc2c(cc1C(c1ccc(C(F)(F)F)cc1)N1CCOCC1)OCO2 (stereo not shown) [Compound 69] | 37 µM
CC1(C)CC(=O)c2c(S(C)(=O)=O)sc(C(=O)OCc3ccccc3)c2C1 [Compound 30] | < 5 µM
O=C(CCl)N1CCN2C(=O)c3ccccc3C12c1ccc(Cl)cc1 (stereo not shown) [Compound 13] | 8 µM
CCCN(CCC)S(=O)(=O)c1ccc(C(=O)SCC(=O)OCC)cc1 [Compound 2] | 13 µM
Oc1cc(OCc2ccc(C(F)(F)F)cc2)ccc1-c1cc[nH]n1 [Compound 44] | < 5 µM
O=[N+]([O-])c1cc(C(F)(F)F)cc([N+](=O)[O-])c1Sc1nc2ccccc2[nH]1 [Compound 55] | 7 µM
COc1ccc(NC(=O)C(Cl)=C(Cl)[S+]([O-])Cc2ccc(C)cc2)cn1 (stereo not shown) [Compound 43] | < 5 µM
COC(=O)c1sc(S(C)(=O)=O)c(C#N)c1-c1cc(C(C)(C)C)oc1C [Compound 33] | < 5 µM

SMILES | IC50
O=C(Nn1c(C2CCCCC2)nc2ccccc2c1=O)c1cc([N+](=O)[O-])cc([N+](=O)[O-])c1Cl [Compound 53] | < 5 µM
N#CC(N)=C(C#N)NCc1ccccc1Sc1ccc(Cl)cc1 [Compound 29] | < 5 µM
O=S(=O)(c1ccc(Br)cc1)c1snnc1-c1ccccc1 [Compound 6] | 13 µM
N#CC1(C#N)C(c2ccccc2Cl)C1(C#N)C#N [Compound 21] | 15 µM
Cc1cc(S(=O)(=O)c2ccc(C(F)(F)F)cc2[N+](=O)[O-])c(Cl)cc1Cl [Compound 66] | < 5 µM
Oc1ccc(Br)cc1CNc1cccc(C(F)(F)F)c1 [Compound 70] | 5 µM
CS(=O)(=O)c1cc(C(F)(F)F)cc(S(C)(=O)=O)c1S(C)(=O)=O [Compound 3] | 17 µM
O=S(=O)(c1ccc(Cl)c(Cl)c1)c1snnc1-c1ccccc1 [Compound 7] | 6 µM
O=C(c1nnsc1[S+]([O-])c1ccc(Cl)cc1)N1CCCCC1 (stereo not shown) [Compound 11] | 8 µM
O=C(Sc1ccccc1)c1ccc2ncsc2c1 [Compound 68] | 9 µM
C=CCn1c(Sc2ncnc3c2sc(=S)n3CC=C)nnc1-c1ccccc1 [Compound 27] | < 5 µM
O=C(c1c[nH]c(C(=O)C(Cl)(Cl)Cl)c1)c1cccc(Cl)c1Cl [Compound 59] | < 5 µM
Oc1cc2c(cc1C(c1ccc(Cl)c(Cl)c1)N1CCCC1)OCO2 (stereo not shown) [Compound 1] | 30 µM
CCOC(=O)c1cc(C#N)c(Sc2nnc(SC)s2)nc1C(F)(F)F [Compound 72] | < 5 µM
O=C(OCn1ncc(Cl)c(Cl)c1=O)c1cccc(C(F)(F)F)c1 [Compound 38] | < 5 µM
O=S(=O)(c1cccc(C(F)(F)F)c1)c1snnc1-c1ccccc1 [Compound 35] | < 5 µM
N#CCSc1ccc(C#N)cc1 [Compound 24] | 12 µM
CC1(C)CC(=O)C2(C(=O)C1)C(c1ccc(Cl)cc1Cl)C2(C#N)C#N (stereo not shown) [Compound 37] | < 5 µM
